# From patent publication US20150246136A1, “NOVEL BINDER-DRUG CONJUGATES (ADCs) AND USE OF SAME” (priority 2011, published 2015)
# Structures can show the parent of a compound that is named as a salt. Square brackets hold non-standard residues; d marks the D form. Peptide text beside a SMILES is read from it. * marks the point of attachment. X2 = CC(C)[C@@H](C(=O)*)N(C)CCCCCCN1C(=O)CC(SC[C@H](N)C(=O)O)C1=O; X1 = CC(C)[C@@H](C(=O)*)N(C)CCCCCC(=O)NCCCC[C@H](N)C(=O)O; Dolaproine = CO[C@@H]([C@@H]1CCCN1)[C@@H](C)C(=O)O; Dil = CC[C@H](C)[C@H](NC)[C@@H](CC(=O)O)OC; X5 = C[C@@H](N*)[C@@H](O)c1ccccc1; Oxazinan2yl(1,2) = C1CCN(*)OC1; NMeV = CN[C@H](C(=O)O)C(C)C
# System: Caco2 cells
# Experiment: Cell permeability, flux assay using Caco2 cells
# Type: in vitro ADME
# Conditions: 2 hours
# Procedure: C-3.3 In Vitro Tests for Determining Cell Permeability
# The cell permeability of a substance can be investigated by means of in vitro testing in a flux assay using Caco2 cells (M. D. Troutman and D. R. Thakker, Pharm. Res. 20(8):1210-1224 (2003)). To do so, the cells are cultured on 24-hole filter plates for 15-16 days. To determine the permeation, the respective test substance in a HEPES buffer was applied to the cells either apically (A) or basally (B) and incubated for 2 hours. After 0 h and 2 h, samples were taken from the cis and trans compartments. The samples were separated by HPLC (Agilent 1200, Biblingen, Germany) using reverse-phase columns. The HPLC system was linked to a triple quadrupole mass spectrometer API 4000 (Applied Biosystems Applera, Darmstadt, Germany) via a turbo ion spray interface. Permeability was evaluated on the basis of a Papp value which was calculated by means of the formula published by Schwab et al. (D. Schwab et al., J. Med. Chem. 46, 1716-1725 (2003)).
# The permeability of B to A (Papp (B-A)) is of crucial importance for toxophores but are released intracellularly: the lower this permeability, the longer is the dwell time of the substance in the cell after intracellular release and thus also the time available for interaction with the biochemical target (here tubulin).
row,Compound,Papp (B-A)
1,"CC[C@H](C)[C@@H]([C@@H](CC(=O)N1CCC[C@H]1[C@H](OC)[C@@H](C)C(=O)N[C@@H](Cc1c[nH]c2ccccc12)C(=O)N1CCCCO1)OC)N(C)C(=O)[C@@H](NC(=O)[C@H](C(C)C)N(C)CCCCCC(=O)NCCCC[C@H](N)C(=O)O)C(C)C [Example 277, N-(6-{[(5S)-5-amino-5-carboxypentyl]amino}-6-oxohexyl)-N-methyl-L-valyl-N-[(3R,4S,5S)-1-{(2S)-2-[(1R,2R)-3-{[(2S)-3-(1H-indol-3-yl)-1-(1,2-oxazinan-2-yl)-1-oxopropan-2-yl]amino}-1-methoxy-2-methyl-3-oxopropyl]pyrrolidin-1-yl}-3-methoxy-5-methyl-1-oxoheptan-4-yl]-N-methyl-L-valinamide trifluoroacetate] (X1-V[Dil][Dolaproine]W-{Oxazinan2yl(1,2)})",0.2 ×10⁻⁶ cm/s
2,"CC[C@H](C)[C@@H]([C@@H](CC(=O)N1CCC[C@H]1[C@H](OC)[C@@H](C)C(=O)N[C@@]1(C(=O)N2CCCCO2)C[C@@H]1c1ccccc1)OC)N(C)C(=O)[C@@H](NC(=O)[C@H](C(C)C)N(C)CCCC(=O)NNC(=O)CCCCCN1C(=O)CC(SC[C@H](N)C(=O)O)C1=O)C(C)C (stereo partly drawn) [Example 235, N-(4-{2-[6-(3-{[(2R)-2-amino-2-carboxyethyl]sulfanyl}-2,5-dioxopyrrolidin-1-yl)hexanoyl]hydrazino}-4-oxobutyl)-N-methyl-L-valyl-N-[(3R,4S,5S)-3-methoxy-1-{(2S)-2-[(1R,2R)-1-methoxy-2-methyl-3-{[(1S,2R)-1-(1,2-oxazinan-2-ylcarbonyl)-2-phenylcyclopropyl]amino}-3-oxopropyl]pyrrolidin-1-yl}-5-methyl-1-oxoheptan-4-yl]-N-methyl-L-valinamide]",0.25 ×10⁻⁶ cm/s
3,"CC[C@H](C)[C@@H]([C@@H](CC(=O)N1CCC[C@H]1[C@H](OC)[C@@H](C)C(=O)N[C@@H](Cc1c[nH]c2ccccc12)C(N)=O)OC)N(C)C(=O)[C@@H](NC(=O)[C@H](C(C)C)N(C)CCCCCCN1C(=O)CC(SC[C@H](N)C(=O)O)C1=O)C(C)C (stereo partly drawn) [Example 236, N-[6-(3-{[(2R)-2-amino-2-carboxyethyl]sulfanyl}-2,5-dioxopyrrolidin-1-yl)hexyl]-N-methyl-L-valyl-N-[(3R,4S,5S)-1-{(2S)-2-[(1R,2R)-3-{[(2S)-1-amino-3-(1H-indol-3-yl)-1-oxopropan-2-yl]amino}-1-methoxy-2-methyl-3-oxopropyl]pyrrolidin-1-yl}-3-methoxy-5-methyl-1-oxoheptan-4-yl]-N-methyl-L-valinamide] (X2-V[Dil][Dolaproine]W-NH2)",0.5 ×10⁻⁶ cm/s
4,"CC[C@H](C)[C@@H]([C@@H](CC(=O)N1CCC[C@H]1[C@H](OC)[C@@H](C)C(=O)N[C@@H](Cc1c[nH]c2ccccc12)C(=O)O)OC)N(C)C(=O)[C@@H](NC(=O)[C@H](C(C)C)N(C)CCCCCC(=O)NCCCC[C@H](N)C(=O)O)C(C)C [Example 278, N-(6-{[(5S)-5-amino-5-carboxypentyl]amino}-6-oxohexyl)-N-methyl-L-valyl-N-[(3R,4S,5S)-1-{(2S)-2-[(1R,2R)-3-{[(1S)-1-carboxy-2-(1H-indol-3-yl)ethyl]amino}-1-methoxy-2-methyl-3-oxopropyl]pyrrolidin-1-yl}-3-methoxy-5-methyl-1-oxoheptan-4-yl]-N-methyl-L-valinamide] (X1-V[Dil][Dolaproine]W-OH)",0.1 ×10⁻⁶ cm/s
5,"CC[C@H](C)[C@@H]([C@@H](CC(=O)N1CCC[C@H]1[C@H](OC)[C@@H](C)C(=O)N[C@@H](Cc1c[nH]c2ccccc12)C(N)=O)OC)N(C)C(=O)[C@@H](NC(=O)[C@H](C(C)C)N(C)CCCC(=O)NNC(=O)CCCCCN1C(=O)CC(SC[C@H](N)C(=O)O)C1=O)C(C)C (stereo partly drawn) [Example 233, N-(4-{2-[6-(3-{[(2R)-2-amino-2-carboxyethyl]sulfanyl}-2,5-dioxopyrrolidin-1-yl)hexanoyl]hydrazino}-4-oxobutyl)-N-methyl-L-valyl-N-[(3R,4S,5S)-1-{(2S)-2-[(1R,2R)-3-{[(2S)-1-amino-3-(1H-indol-3-yl)-1-oxopropan-2-yl]amino}-1-methoxy-2-methyl-3-oxopropyl]pyrrolidin-1-yl}-3-methoxy-5-methyl-1-oxoheptan-4-yl]-N-methyl-L-valinamide]",0.2 ×10⁻⁶ cm/s
6,"CC[C@H](C)[C@@H]([C@@H](CC(=O)N1CCC[C@H]1[C@H](OC)[C@@H](C)C(=O)N[C@@H](Cc1c[nH]c2ccccc12)C(=O)NCc1ccccc1)OC)N(C)C(=O)[C@@H](NC(=O)[C@H](C(C)C)N(C)CCCC(=O)NNC(=O)CCCCCN1C(=O)CC(SC[C@H](N)C(=O)O)C1=O)C(C)C (stereo partly drawn) [Example 239, N-(4-{2-[6-(3-{[(2R)-2-amino-2-carboxyethyl]sulfanyl}-2,5-dioxopyrrolidin-1-yl)hexanoyl]hydrazino}-4-oxobutyl)-N-methyl-L-valyl-N-[(3R,4S,5S)-1-{(2S)-2-[(1R,2R)-3-{[(2S)-1-(benzylamino)-3-(1H-indol-3-yl)-1-oxopropan-2-yl]amino}-1-methoxy-2-methyl-3-oxopropyl]pyrrolidin-1-yl}-3-methoxy-5-methyl-1-oxoheptan-4-yl]-N-methyl-L-valinamide]",0.7 ×10⁻⁶ cm/s
7,"CC[C@H](C)[C@@H]([C@@H](CC(=O)N1CCC[C@H]1[C@H](OC)[C@@H](C)C(=O)N[C@@H](Cc1c[nH]c2ccccc12)C(=O)O)OC)N(C)C(=O)[C@@H](NC(=O)[C@H](C(C)C)N(C)CCCCCCN1C(=O)CC(SC[C@H](N)C(=O)O)C1=O)C(C)C (stereo partly drawn) [Example 237, N-[6-(3-{[(2R)-2-amino-2-carboxyethyl]sulfanyl}-2,5-dioxopyrrolidin-1-yl)hexyl]-N-methyl-L-valyl-N-[(3R,4S,5S)-1-{(2S)-2-[(1R,2R)-3-{[(1S)-1-carboxy-2-(1H-indol-3-yl)ethyl]amino}-1-methoxy-2-methyl-3-oxopropyl]pyrrolidin-1-yl}-3-methoxy-5-methyl-1-oxoheptan-4-yl]-N-methyl-L-valinamide] (X2-V[Dil][Dolaproine]W-OH)",0.1 ×10⁻⁶ cm/s
8,"CC[C@H](C)[C@@H]([C@@H](CC(=O)N1CCC[C@H]1[C@H](OC)[C@@H](C)C(=O)N[C@@H](Cc1c[nH]c2ccccc12)C(=O)O)OC)N(C)C(=O)[C@@H](NC(=O)[C@H](C(C)C)N(C)CCCC(=O)NNC(=O)CCCCCN1C(=O)CC(SC[C@H](N)C(=O)O)C1=O)C(C)C (stereo partly drawn) [Example 234, N-(4-{2-[6-(3-{[(2R)-2-amino-2-carboxyethyl]sulfanyl}-2,5-dioxopyrrolidin-1-yl)hexanoyl]hydrazino}-4-oxobutyl)-N-methyl-L-valyl-N-[(3R,4S,5S)-1-{(2S)-2-[(1R,2R)-3-{[(1S)-1-carboxy-2-(1H-indol-3-yl)ethyl]amino}-1-methoxy-2-methyl-3-oxopropyl]pyrrolidin-1-yl}-3-methoxy-5-methyl-1-oxoheptan-4-yl]-N-methyl-L-valinamide]",0.16 ×10⁻⁶ cm/s
9,"CC[C@H](C)[C@@H]([C@@H](CC(=O)N1CCC[C@H]1[C@H](OC)[C@@H](C)C(=O)N[C@@H](Cc1ccccc1)C(=O)O)OC)N(C)C(=O)[C@@H](NC(=O)[C@@H](NC)C(C)C)C(C)C [monomethyl auristatin F (MMAF), monomethyl auristatin F, reference compound] (H-[NMeV]V[Dil][Dolaproine]F-OH)",7.3 ×10⁻⁶ cm/s
10,"CC[C@H](C)[C@@H]([C@@H](CC(=O)N1CCC[C@H]1[C@H](OC)[C@@H](C)C(=O)N[C@H](C)[C@@H](O)c1ccccc1)OC)N(C)C(=O)[C@@H](NC(=O)[C@@H](NC)C(C)C)C(C)C [monomethyl auristatin E (MMAE), monomethyl auristatin E, reference compound] (H-[NMeV]V[Dil][Dolaproine]-X5)",7.3 ×10⁻⁶ cm/s

# System: various carcinoma cell lines
# Experiment: not given
# Conditions: in comparison with MMAE; cited from earlier work
row,Compound,antiproliferative effect
1,"CC[C@H](C)[C@@H]([C@@H](CC(=O)N1CCC[C@H]1[C@H](OC)[C@@H](C)C(=O)N[C@@H](Cc1ccccc1)C(=O)O)OC)N(C)C(=O)[C@@H](NC(=O)[C@@H](NC)C(C)C)C(C)C [MMAF, Monomethylauristatin F] (H-[NMeV]V[Dil][Dolaproine]F-OH)",only a moderate antiproliferative effect

# Same assay, conditions: in comparison with MMAF, various carcinoma cell lines; cited from earlier work
row,Compound,in vitro cytotoxicity
1,"CC[C@H](C)[C@@H]([C@@H](CC(=O)N1CCC[C@H]1[C@H](OC)[C@@H](C)C(=O)N[C@@H](Cc1ccccc1)C(=O)OC)OC)N(C)C(=O)[C@@H](NC(=O)[C@@H](NC)C(C)C)C(C)C [MMAF-OMe, Monomethylauristatin F-methylester] (H-[NMeV]V[Dil][Dolaproine]F-OMe)",greater by several orders of magnitude
